This note sets out measurements from PubChem BioAssay AID1117324 (Cheminformatics & Chemogenomics Research Group (CCRG), …, 2015).

pIC50: −log10 of the molar value. Active and inactive are the calls of the source. The rule behind the calls is not given here.

The test system of the assay is VEGF-stimulated ADSC/ECFC co-culture, nuclear area imaging. Description: nuclear area loss in endothelial-stromal co-culture, dose response, cell-based, VEGF stimulation, IC50 (AID 1117324).
In the case of `O=C1c2ccccc2C(=O)C1C(=O)C(c1ccccc1)c1ccccc1`, the IC50 is > 10 µM (inactive).
On the same count and under the same terms, to `CCOC(=O)C=C(C)C=CC[C@@H](C)CCCC(C)C` belongs > 10 µM (inactive); to `CCCCCCCCCCCCCCCCNc1ccc(C(=O)O)cc1`, > 10 µM (inactive); to `COc1ccc(-c2ccc3cc(C(=O)O)ccc3c2)cc1C12CC3CC(CC(C3)C1)C2`, > 10 µM (inactive).
Still for that read-out and setting: to `C[C@@H]1C[C@H]2[C@@H]3CCC4=CC(=O)C=C[C@]4(C)[C@@]3(Cl)[C@@H](O)C[C@]2(C)[C@@]1(OC(=O)c1ccco1)C(=O)CCl` belongs > 10 µM (inactive).
The same measure, in the same setting: for `NC1=NCC2c3ccccc3Cc3ccccc3N12` (centres undefined) the value was > 10 µM (inactive).
As for `Cn1ccc2cc3c(cc21)CCN3C(=O)Nc1cccnc1`, the IC50 is > 10 µM (inactive).
The same measure, in the same setting: for `O=C(NC(=O)c1c(F)cccc1F)Nc1ccc(Cl)c(Oc2ncc(C(F)(F)F)cc2Cl)c1` the value was > 10 µM (inactive).
The same measure, in the same setting: for `O=C(Nc1ccc(Oc2ccc(Cl)cc2)c(Cl)c1)c1cc(I)cc(I)c1O` the value was 6.57 µM (inactive).
Turning to `COCCOC(=O)C1=C(C)NC(C)=C(C(=O)OC/C=C/c2ccccc2)C1c1cccc([N+](=O)[O-])c1` (centres undefined), the IC50 is > 10 µM (inactive).
Consider `C[n+]1cc2c3c(ccc2c2ccc4cc5c(cc4c21)OCO5)OCO3`, for which the negative-log IC50 (pIC50) was 6.01.
Regarding `CCCn1cnc2c1c(=O)n(CCCCC(C)=O)c(=O)n2C`, the IC50 was > 10 µM (inactive).
The same measure, in the same setting: to `Cc1ccc(O)cc1` belongs > 10 µM (inactive).
Still for that read-out and setting: to `Cc1cc(N)c2ccccc2[n+]1CCCCCCCCCC[n+]1c(C)cc(N)c2ccccc21` belongs > 10 µM (inactive); to `Oc1c(I)cc(I)c2cccnc12`, > 10 µM (inactive); to `COc1cccc(CCc2ccccc2OCC(CN(C)C)OC(=O)CCC(=O)O)c1` (centres undefined), > 10 µM (inactive).
Same read-out and setting: to `Cc1c(C)c2c(c(C)c1O)CC[C@@](C)(CCC[C@H](C)CCC[C@H](C)CCCC(C)C)O2` belongs > 10 µM (inactive).
Turning to `COCC(=O)O[C@]1(CCN(C)CCCc2nc3ccccc3[nH]2)CCc2cc(F)ccc2[C@@H]1C(C)C`, the IC50 was > 10 µM (inactive).
As to `CC1CCC(C(C)C)C(OC(=O)c2ccccc2O)C1` (centres undefined), the IC50 was > 10 µM (inactive).
On the same count and under the same terms, to `O=C(NOCC1CC1)c1ccc(F)c(F)c1Nc1ccc(I)cc1Cl` belongs > 10 µM (inactive); to `OCCN1CCN(CCCN2c3ccccc3Sc3ccc(C(F)(F)F)cc32)CC1`, > 10 µM (inactive).
Consider `COc1cc2nc(N3CCN(C(=O)C4COc5ccccc5O4)CC3)nc(N)c2cc1OC` (centres undefined), for which the IC50 is > 10 µM (inactive).
For `COc1cccc2c1C(=O)c1c(O)c3c(c(O)c1C2=O)C[C@@](O)(C(=O)CO)C[C@@H]3O[C@H]1C[C@H](N)[C@H](O)[C@H](C)O1`, the negative-log IC50 (pIC50) is 6.94.
For `COC(=O)C(Cl)C(=O)OC`, the IC50 is > 10 µM (inactive).
As to `Nc1cc(C(F)(F)F)ccc1S`, the IC50 was > 10 µM (inactive).
Turning to `Cc1nc(Nc2ncc(C(=O)Nc3c(C)cccc3Cl)s2)cc(N2CCN(CCO)CC2)n1`, the IC50 was > 10 µM (inactive).
The same measure, in the same setting: for `CCC(C)n1ncn(-c2ccc(N3CCN(c4ccc(OC[C@H]5CO[C@](Cn6cncn6)(c6ccc(Cl)cc6Cl)O5)cc4)CC3)cc2)c1=O` (some centres undefined) the value was > 10 µM (inactive); for `O=C(Nc1ccc([N+](=O)[O-])cc1Cl)c1cc(Cl)ccc1O`, 5.81 µM (inactive).
Regarding `CC[C@]1(O)C[C@H]2CN(CCc3c([nH]c4ccccc34)[C@@](C(=O)OC)(c3cc4c(cc3OC)N(C=O)[C@H]3[C@@](O)(C(=O)OC)[C@H](OC(C)=O)[C@]5(CC)C=CCN6CC[C@]43[C@@H]65)C2)C1`, the IC50 is > 10 µM (inactive).
